Reference: US9844513B2, “Oral pharmaceutical composition” (Sigmoid Pharma Limited, priority 2007, dated 2017)
Read-outs that look alike come from different tables or passages of the source.

Tests used:
DSS-induced colitis mice = test: DSS-induced colitis in mice (DSS 2.5% in drinking water); format: in vivo; settings: 8 mg DMOG every second day
Description: Colitis was induced in mice using DSS 2.5% in drinking water. DMOG mini-capsules of example 20 with two different coating were used, namely DSS-bead (0.25 mg—immediate release), and DSS-COAT-bead (DSS-COAT beads coated with 22% Surelease®—DMOG: 0.25 mg/day) and were compared to non-treated DSS-induced colitis mice and mice treated with 8 mg DMOG IP every second day. The minicapsules were prepared using the method described in Example 20 above.
As DMOG is known to increase the production of erythropoietin it is expected that in the presence of systemic DMOG that the packed cell volume would be increased. The packed cell volume (PCV) is a measurement of the proportion of blood that is made up of cells. The value is expressed as a percentage or fraction of cells in blood. The PCV rises when the number of red blood cells increases. […] Thus, it could be concluded that when administered within the intestinal or colonic lumen that it acts locally at low dose and negligible concentrations are systemically available.
Referring to FIG. 21, the disease activity index (DAI) is calculated as the sum of scores of weight loss, stool consistency and blood in feces. […] The minicapsules were prepared using the method described in Example 20 above.
A major symptom of DSS-induced colitis is weight loss. […] Likewise, when 0.25 mg DMOG is administered daily as colon-specific beads (DSS-COAT beads coated with 22% Surelease®—DMOG: 0.25 mg/day), the protective effect is pronounced. […] The minicapsules were prepared using the method described in Example 20 above.

[1] = cited from earlier work
[2] = tested on: antigen specific IgA and IgG; test: Antigen specific IgA and IgG in intestinal washes by ELISA after immunisation of mice; format: in vivo; settings: intestinal washes one week after booster
Description: FIG. 9 represents the immune response in mice immunised with minicapsules as described in Example 5 and Example 6. […] Mice were immunised on 3 consecutive days on week 0 followed by an identical series of booster immunisations at week 2. Intestinal washes were collected one week following the booster and antigen specific IgA and IgG was assessed by ELISA.

In the case of `COC(=O)CNC(=O)C(=O)OC` [DMOG, dimethyloxalglycine], the “colon length (colon shortening)” value (DSS-induced colitis mice; Day 7, IP) is reported as “significantly reduced colon shortening”, the “packed cell volume (PCV)” value (DSS-induced colitis mice; Day 7, IP) is reported as “increases the PCV” and the “protective effect (weight loss) compared with non-treated DSS mice” value (DSS-induced colitis mice; IP) is reported as “significant protective effect”. For the same molecule, the “Disease Activity Index (DAI)” value (DSS-induced colitis mice; IP, 7 days) was “high DAI”.

For `COc1ccccc1OCCNCC(O)COc1cccc2[nH]c3ccccc3c12` (centres unmarked) [Carvedilol], the “time to reach maximum plasma concentration” value ([1]; absorbed from the small intestine) is given as “within two hours”, the relative absorption ([1]; colon) is given as roughly 7% and the absolute bioavailability ([1]; extensive first-pass metabolism) is given as “approximately 25%”. For the same molecule, the relative absorption ([1]; ileum) was roughly 28%, the half-life ([1]; in vivo) was 7 to 10 h and the relative absorption ([1]; jejunum) was “approximately 56%”.

B1: OVA in solution: Ovalbumin antigen given in solution, comparison group (protein, UniProt P01012 2-386, looked up)
Ovalbumin: GSIGAASMEFCFDVFKELKVHHANENIFYCPIAIMSALAMVYLGAKDSTRTQINKVVRFDKLPGFGDSIEAQCGTSVNVHSSLRDILNQITKPNDVYSFSLASRLYAEERYPILPEYLQCVKELYRGGLEPINFQTAADQARELINSWVESQTNGIIRNVLQPSSVDSQTAMVLVNAIVFKGLWEKAFKDEDTQAMPFRVTEQESKPVQMMYQIGLFRVASMASEKMKILELPFASGTMSMLVLLPDEVSGLEQLESIINFEKLTEWTSSNVMEERKIKVYLPRMKMEEKYNLTSVLMAMGITDVFSSSANLSGISSAESLKISQAVHAAHAEINEAGREVVGSAEAGVDAASVSEEFRADHPFLFCIKHIATNAVLFFGRCVSP
For B1, the “titres of antigen specific IgG in the intestinal washes” value [2] was “highest responses”.
